# pIC50: −log10 of the molar value. Where a SMILES comes first, the peptide text is derived from it. The star is where a group is joined. Isovaleryl = CC(C)CC(=O)*; Isobutyryl = CC(C)C(=O)*; Octanoyl = CCCCCCCC(=O)*; Hexanoyl = CCCCCC(=O)*; PhAc = O=C(Cc1ccccc1)*; Bz = O=C(c1ccccc1)*
# Legend:
# [1] = molecular target: Protein farnesyltransferase (Bos taurus) (UniProt P29702+P49355); experiment: In vitro inhibition of bovine Farnesyltransferase at a 1 ug/mL.; assay type: protein-complex assay
# [2] = molecular target: Protein farnesyltransferase (Bos taurus, UniProt P29702+P49355); experiment: In vitro inhibition of bovine Farnesyltransferase.; assay type: protein-complex assay
inhibition [1],pIC50 [2],Compound
38.6%,,COC(=O)[C@H](COC(=O)C=C(C)C)NC(=O)[C@@H](NC(=O)[C@@H](N)CS)C(C)C
0%,,COC(=O)[C@H](CO)NC(=O)[C@@H](NC(=O)[C@@H](N)CS)C(C)C (H-Cys-Val-Ser-OMe)
69.3%,6.05,COC(=O)[C@H](COC(=O)c1ccccc1)NC(=O)[C@@H](NC(=O)[C@@H](N)CS)C(C)C (H-Cys-Val-Ser(Bz)-OMe)
74%,6.09,COC(=O)[C@H](Cc1ccc(OC(=O)CC(C)C)cc1)NC(=O)[C@@H](NC(=O)[C@@H](N)CS)C(C)C (H-Cys-Val-Tyr(Isovaleryl)-OMe)
26.7%,4.92,COC(=O)[C@H](Cc1ccc(OC(=O)C(C)C)cc1)NC(=O)[C@@H](NC(=O)[C@@H](N)CS)C(C)C (H-Cys-Val-Tyr(Isobutyryl)-OMe)
42%,5.12,CCCCCC(=O)Oc1ccc(C[C@H](NC(=O)[C@@H](NC(=O)[C@@H](N)CS)C(C)C)C(=O)OC)cc1 (H-Cys-Val-Tyr(Hexanoyl)-OMe)
23.4%,4.70,COC(=O)[C@H](Cc1ccc(OC(=O)c2ccccc2)cc1)NC(=O)[C@@H](NC(=O)[C@@H](N)CS)C(C)C (H-Cys-Val-Tyr(Bz)-OMe)
79.6%,6.30,COC(=O)[C@H](Cc1ccc(OC(=O)C=C(C)C)cc1)NC(=O)[C@@H](NC(=O)[C@@H](N)CS)C(C)C
17%,4.77,COC(=O)[C@H](Cc1cccc(OC(=O)/C=C/c2ccccc2)c1)NC(=O)[C@@H](NC(=O)[C@@H](N)CS)C(C)C
30%,5.00,COC(=O)[C@H](Cc1cccc(OC(=O)C(C)C)c1)NC(=O)[C@@H](NC(=O)[C@@H](N)CS)C(C)C
69.3%,,COC(=O)[C@H](Cc1cccc(OC(=O)c2ccccc2)c1)NC(=O)[C@@H](NC(=O)[C@@H](N)CS)C(C)C
32%,,COC(=O)[C@H](Cc1ccc(OC(=O)Cc2ccccc2)cc1)NC(=O)[C@@H](NC(=O)[C@@H](N)CS)C(C)C (H-Cys-Val-Tyr(PhAc)-OMe)
67%,6.04,COC(=O)[C@H](COC(=O)c1ccc(C)cc1)NC(=O)[C@@H](NC(=O)[C@@H](N)CS)C(C)C
57%,5.74,COC(=O)[C@H](COC(=O)c1ccc(OC)cc1)NC(=O)[C@@H](NC(=O)[C@@H](N)CS)C(C)C
12%,,COC(=O)[C@H](Cc1cccc(OC(C)=O)c1)NC(=O)[C@@H](NC(=O)[C@@H](N)CS)C(C)C
17%,4.66,CCCCCCCC(=O)Oc1ccc(C[C@H](NC(=O)[C@@H](NC(=O)[C@@H](N)CS)C(C)C)C(=O)OC)cc1 (H-Cys-Val-Tyr(Octanoyl)-OMe)
61%,5.08,COC(=O)[C@H](Cc1cccc(OC(=O)C=C(C)C)c1)NC(=O)[C@@H](NC(=O)[C@@H](N)CS)C(C)C
12.6%,4.37,COC(=O)[C@H](Cc1ccc(OC(=O)/C=C/c2ccccc2)cc1)NC(=O)[C@@H](NC(=O)[C@@H](N)CS)C(C)C
75%,6.09,COC(=O)[C@H](COC(=O)c1ccc(Cl)cc1)NC(=O)[C@@H](NC(=O)[C@@H](N)CS)C(C)C
6.3%,4.32,COC(=O)[C@H](Cc1ccc(OC(C)=O)cc1)NC(=O)[C@@H](NC(=O)[C@@H](N)CS)C(C)C (H-Cys-Val-Tyr(Ac)-OMe)
,5.24,COC(=O)[C@H](CCSC)NC(=O)[C@H](Cc1ccccc1)NC(=O)[C@@H](NC(=O)[C@@H](N)CS)C(C)C
10%,5.09,COC(=O)[C@H](Cc1ccc(OC(=O)CC(C)CCCC(C)C)cc1)NC(=O)[C@@H](NC(=O)[C@@H](N)CS)C(C)C (some centres undefined)
16.3%,,COC(=O)[C@H](COC(=O)/C=C/c1ccccc1)NC(=O)[C@@H](NC(=O)[C@@H](N)CS)C(C)C

# Reference: ChEMBL document CHEMBL1136022, “Development of tripeptidyl farnesyltransferase inhibitors” (Bioorg Med Chem Lett, 2002)
